Results published in patent US20250092033A1, “HETEROAROMATIC NITROGEN-OXIDE COMPOUND, PREPARATION METHOD THEREFOR, AND USE THEREOF” (BEIJING AVISTONE BIOTECHNOLOGY CO., LTD., priority 2021, published 2025).

Legend:
Assay type in all cases: biochemical
Settings in all cases: 10 concentrations, 3-fold dilution
MET D1228N = target: T1, MET D1228N (Homo sapiens, UniProt P08581, D1228N); assay: Kinase inhibition experiment (HTRF KinEASE-TK kit), mutant MET D1228N
T1 construct: purchased Signalchem M52-12IG
Description: (§1) The activity of the compounds was determined by detecting the residual amount of ATP after reacting with wild-type or mutant MET protein kinase by using an HTRF KinEASE-TK kit. […]
(§2) The compounds were determined on the selected kinase, the solvent control was set and a total of 10 concentrations were detected, diluted 3-fold, 2 replicates per concentration.
(§3) 1 volume of 5× kinase reaction buffer and 4 volumes of water; 5 mM MgCl2; 1 mM DTT; 1 mM MnCl2; or 2500 nm SEB.
(§4) 1) 10 nl or 4 μlof the diluted compound was transferred to each well of the reaction plate (784075 or 264706, Greiner or Thermo) with a pipette, the reaction plate was sealed with a sealing plate, and centrifuged at 1000 for 1 minute.
(§5) 2) 2× MET was prepared from 1× enzyme reaction buffer, 5 μl or 2 μl kinase was added to each well of the reaction plate, the reaction plate was sealed with a sealing plate, centrifuged at 1000 g for 30 seconds and incubated at room temperature for 10 min.
(§6) 3) a mixed solution of 2× TK-substrate-biotin and ATP were prepared from 1× enzyme reaction buffer solution, 5 μl or 2 μl TK-substrate-biotin/ATP of the mixed solution was added into a reaction plate, the reaction plate was sealed with a sealing plate, centrifuged at 1000 g for 30 seconds and reacted for 50 minutes or 10 minutes at room temperature.
(§7) 4) a mixed solution of 4× or 2× Sa-XL 665 and TK-antibody-Cryptate were prepared from HTRF detection buffer, 5 or 10 μl of the mixed solution of Sa-XL 665 and TK-antibody-Cryptate was added into each well, centrifuged at 1000 g for 30 seconds, and reacted at room temperature for 1 h.
(§8) 5) the fluorescence signals at 615 nm (cryptate) and 665 nm (XL665) were read with Envision 2104 or TECAN.
(§9) The data was analyzed using GraphPad Prism 6.0 or 7 software, and the dose-response curve was fitted with nonlinear S-curve regression, and the IC50 value was calculated therefrom.
(§10) Enzyme Inhibition Percent (%)=100-(Signalmpd-SignalAve_PC)/(SignalAve_VC-SignalAve_PC)×100

MET F1200I = target: T2, MET F1200I (Homo sapiens, UniProt P08581, F1200I); assay: Kinase inhibition experiment (HTRF KinEASE-TK kit), mutant MET F1200I
T2 construct: purchased Signalchem M52-12GG/Y767-2
Description: as §1, §2, §3, §4, §5, §6, §7, §8, §9, §10

[1] = target: T3, wild type (WT) MET kinase (Homo sapiens, UniProt P08581); assay: Kinase inhibition experiment (HTRF KinEASE-TK kit), wild-type MET
T3 construct: purchased Carna 08-151
Description: as §1, §2, §3, §4, §5, §6, §7, §8, §9, §10

T1 sequence (P08581 25-1390 D1228N): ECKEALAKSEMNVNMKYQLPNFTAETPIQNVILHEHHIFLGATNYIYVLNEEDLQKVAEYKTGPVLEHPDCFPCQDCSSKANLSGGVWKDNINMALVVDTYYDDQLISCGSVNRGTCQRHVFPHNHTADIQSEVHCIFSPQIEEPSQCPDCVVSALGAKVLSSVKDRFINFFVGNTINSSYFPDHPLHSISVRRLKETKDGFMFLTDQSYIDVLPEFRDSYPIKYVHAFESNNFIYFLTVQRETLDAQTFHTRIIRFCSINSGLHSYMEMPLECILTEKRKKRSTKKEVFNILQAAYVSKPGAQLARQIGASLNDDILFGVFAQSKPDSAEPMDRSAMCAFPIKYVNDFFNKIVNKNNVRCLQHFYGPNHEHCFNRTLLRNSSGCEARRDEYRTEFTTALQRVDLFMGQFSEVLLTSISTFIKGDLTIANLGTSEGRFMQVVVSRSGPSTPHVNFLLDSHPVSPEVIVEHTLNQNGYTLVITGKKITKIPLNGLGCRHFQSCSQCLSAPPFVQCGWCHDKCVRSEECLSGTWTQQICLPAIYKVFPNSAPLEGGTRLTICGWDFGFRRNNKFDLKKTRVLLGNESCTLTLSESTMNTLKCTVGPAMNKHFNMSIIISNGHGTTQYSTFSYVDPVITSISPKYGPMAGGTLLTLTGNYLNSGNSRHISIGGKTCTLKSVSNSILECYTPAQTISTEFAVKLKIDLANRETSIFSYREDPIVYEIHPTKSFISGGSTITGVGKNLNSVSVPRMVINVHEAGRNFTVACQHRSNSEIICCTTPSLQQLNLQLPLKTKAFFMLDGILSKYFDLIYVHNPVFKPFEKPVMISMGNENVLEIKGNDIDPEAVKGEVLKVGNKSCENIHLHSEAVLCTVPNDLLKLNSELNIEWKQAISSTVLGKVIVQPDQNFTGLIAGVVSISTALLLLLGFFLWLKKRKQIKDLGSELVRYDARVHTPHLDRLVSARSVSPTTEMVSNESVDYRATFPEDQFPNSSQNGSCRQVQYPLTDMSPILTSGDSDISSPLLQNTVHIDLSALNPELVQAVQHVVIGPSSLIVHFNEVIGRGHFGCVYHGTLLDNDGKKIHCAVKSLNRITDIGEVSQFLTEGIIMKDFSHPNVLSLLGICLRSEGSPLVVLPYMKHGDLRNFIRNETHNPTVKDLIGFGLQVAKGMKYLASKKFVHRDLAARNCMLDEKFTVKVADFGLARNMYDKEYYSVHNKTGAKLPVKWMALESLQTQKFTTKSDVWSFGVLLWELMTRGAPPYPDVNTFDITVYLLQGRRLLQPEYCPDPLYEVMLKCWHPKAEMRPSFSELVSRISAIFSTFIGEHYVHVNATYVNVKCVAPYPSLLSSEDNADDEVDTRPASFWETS
T3 sequence (P08581 25-1390): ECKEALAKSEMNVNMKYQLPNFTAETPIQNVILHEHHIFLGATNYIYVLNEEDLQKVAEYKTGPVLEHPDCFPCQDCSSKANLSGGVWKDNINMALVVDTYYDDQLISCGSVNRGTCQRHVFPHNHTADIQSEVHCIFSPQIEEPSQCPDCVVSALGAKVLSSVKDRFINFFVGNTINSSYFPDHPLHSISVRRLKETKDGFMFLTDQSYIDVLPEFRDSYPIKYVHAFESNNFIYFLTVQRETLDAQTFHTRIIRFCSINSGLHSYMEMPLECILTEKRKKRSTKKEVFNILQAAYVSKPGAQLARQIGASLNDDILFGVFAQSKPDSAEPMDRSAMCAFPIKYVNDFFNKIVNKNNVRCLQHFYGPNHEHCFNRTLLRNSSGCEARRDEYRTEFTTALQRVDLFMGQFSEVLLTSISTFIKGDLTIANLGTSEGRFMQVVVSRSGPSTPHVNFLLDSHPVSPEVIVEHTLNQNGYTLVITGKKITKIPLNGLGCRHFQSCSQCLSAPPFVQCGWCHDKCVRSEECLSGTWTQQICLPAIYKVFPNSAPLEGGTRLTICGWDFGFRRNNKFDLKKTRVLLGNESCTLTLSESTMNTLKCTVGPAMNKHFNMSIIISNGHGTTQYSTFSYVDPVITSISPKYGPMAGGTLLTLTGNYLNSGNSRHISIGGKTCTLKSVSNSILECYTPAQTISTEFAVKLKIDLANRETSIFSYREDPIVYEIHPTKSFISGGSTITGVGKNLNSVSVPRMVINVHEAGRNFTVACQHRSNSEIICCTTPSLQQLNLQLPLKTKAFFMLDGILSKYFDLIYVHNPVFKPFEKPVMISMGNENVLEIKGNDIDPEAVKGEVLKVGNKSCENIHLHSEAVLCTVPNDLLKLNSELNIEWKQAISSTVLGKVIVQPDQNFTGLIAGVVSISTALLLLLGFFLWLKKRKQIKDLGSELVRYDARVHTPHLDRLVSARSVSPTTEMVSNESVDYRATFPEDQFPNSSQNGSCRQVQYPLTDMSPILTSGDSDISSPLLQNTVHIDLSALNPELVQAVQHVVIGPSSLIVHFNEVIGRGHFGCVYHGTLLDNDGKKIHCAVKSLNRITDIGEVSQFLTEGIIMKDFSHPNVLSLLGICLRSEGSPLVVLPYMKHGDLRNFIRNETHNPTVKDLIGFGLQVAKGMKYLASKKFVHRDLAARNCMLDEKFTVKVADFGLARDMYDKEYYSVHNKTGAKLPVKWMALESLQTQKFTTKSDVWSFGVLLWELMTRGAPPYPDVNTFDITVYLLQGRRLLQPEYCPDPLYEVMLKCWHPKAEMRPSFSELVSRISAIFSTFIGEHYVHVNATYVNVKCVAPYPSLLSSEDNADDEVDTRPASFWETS
T2 sequence (P08581 25-1390 F1200I): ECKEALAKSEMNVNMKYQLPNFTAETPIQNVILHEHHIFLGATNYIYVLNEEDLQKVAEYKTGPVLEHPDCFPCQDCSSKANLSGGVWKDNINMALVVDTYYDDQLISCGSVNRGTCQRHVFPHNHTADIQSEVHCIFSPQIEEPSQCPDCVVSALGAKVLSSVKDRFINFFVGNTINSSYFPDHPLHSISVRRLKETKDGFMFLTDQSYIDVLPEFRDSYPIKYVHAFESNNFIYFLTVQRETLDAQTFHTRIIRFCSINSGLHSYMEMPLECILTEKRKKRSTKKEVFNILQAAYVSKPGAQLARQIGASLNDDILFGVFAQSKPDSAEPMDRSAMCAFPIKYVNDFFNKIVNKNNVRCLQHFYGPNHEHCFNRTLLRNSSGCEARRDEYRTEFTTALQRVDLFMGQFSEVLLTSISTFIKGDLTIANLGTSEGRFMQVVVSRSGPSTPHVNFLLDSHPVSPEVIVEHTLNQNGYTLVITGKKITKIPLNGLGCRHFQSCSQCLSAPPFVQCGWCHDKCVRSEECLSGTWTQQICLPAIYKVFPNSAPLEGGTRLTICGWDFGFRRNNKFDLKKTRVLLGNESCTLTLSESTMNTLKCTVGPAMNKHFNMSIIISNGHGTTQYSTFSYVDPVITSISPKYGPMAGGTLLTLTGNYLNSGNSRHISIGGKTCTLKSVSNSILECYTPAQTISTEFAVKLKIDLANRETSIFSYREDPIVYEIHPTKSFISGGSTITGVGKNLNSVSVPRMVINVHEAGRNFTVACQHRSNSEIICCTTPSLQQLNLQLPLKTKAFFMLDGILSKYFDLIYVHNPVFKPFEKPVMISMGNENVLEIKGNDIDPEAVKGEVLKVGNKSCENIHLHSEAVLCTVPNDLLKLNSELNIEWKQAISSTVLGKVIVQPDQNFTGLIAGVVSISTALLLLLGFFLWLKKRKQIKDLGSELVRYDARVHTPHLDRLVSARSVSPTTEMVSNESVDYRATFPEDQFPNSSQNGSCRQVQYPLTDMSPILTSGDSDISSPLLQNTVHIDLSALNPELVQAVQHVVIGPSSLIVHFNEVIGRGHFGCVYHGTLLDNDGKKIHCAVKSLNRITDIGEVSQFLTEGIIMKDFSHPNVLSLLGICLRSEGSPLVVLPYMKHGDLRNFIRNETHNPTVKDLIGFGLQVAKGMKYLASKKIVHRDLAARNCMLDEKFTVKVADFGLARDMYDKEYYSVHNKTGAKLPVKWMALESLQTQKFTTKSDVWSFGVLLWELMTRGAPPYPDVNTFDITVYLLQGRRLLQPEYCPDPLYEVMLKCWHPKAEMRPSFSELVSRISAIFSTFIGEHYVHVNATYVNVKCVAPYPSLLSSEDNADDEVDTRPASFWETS

| Structure (SMILES) | IC50 (MET D1228N) | IC50 (MET F1200I) | IC50 [1] |
| --- | --- | --- | --- |
| O=C(Nc1ccc(Oc2ccnc3[nH]nc(NCCO)c23)c(F)c1)c1cccc(-c2ccc(F)cc2)[n+]1[O-] [Final product 1] | 35.4 nM | 5.8 nM | 2.3 nM |
| C[C@@H](CO)Nc1n[nH]c2nccc(Oc3ccc(NC(=O)c4cccc(-c5ccc(F)cc5)[n+]4[O-])cc3F)c12 [Final product 3] | 13.1 nM | 18.3 nM | 4.3 nM |
| CC[C@@H](CO)Nc1n[nH]c2nccc(Oc3ccc(NC(=O)c4cccc(-c5ccc(F)cc5)[n+]4[O-])cc3F)c12 [Final product 6] | 30 nM | 21.4 nM | 8.5 nM |
| CC(O)CNc1n[nH]c2nccc(Oc3ccc(NC(=O)c4cccc(-c5ccc(F)cc5)[n+]4[O-])cc3F)c12 (stereo not drawn) [Final product 8] | 28.4 nM | 2.3 nM | 4.6 nM |
| CCC(O)CNc1n[nH]c2nccc(Oc3ccc(NC(=O)c4cccc(-c5ccc(F)cc5)[n+]4[O-])cc3F)c12 (stereo not drawn) [Final product 9] | 25.6 nM | 20.8 nM | 3.8 nM |
| O=C(Nc1ccc(Oc2ccnc3[nH]nc(NCC(O)C(F)(F)F)c23)c(F)c1)c1cccc(-c2ccc(F)cc2)[n+]1[O-] (stereo not drawn) [Final product 11] | 35.7 nM | 16.8 nM | 6.3 nM |
| C[C@@H](Nc1n[nH]c2nccc(Oc3ccc(NC(=O)c4cccc(-c5ccc(F)cc5)[n+]4[O-])cc3F)c12)C(C)(C)O [Final product 16] | 28.2 nM | 25.8 nM | 7.5 nM |
| O=C(Nc1ccc(Oc2ccnc3[nH]nc(NCC4(CO)CC(O)C4)c23)c(F)c1)c1cccc(-c2ccc(F)cc2)[n+]1[O-] (stereo not drawn) [Final product 20] | 29.9 nM | 20.1 nM | 6.9 nM |
| O=C(Nc1ccc(Oc2ccnc3[nH]nc(NC4(CO)CC4)c23)c(F)c1)c1cccc(-c2ccc(F)cc2)[n+]1[O-] [Final product 22] | 25.5 nM | 15.5 nM | 5.9 nM |
| O=C(Nc1ccc(Oc2ccnc3[nH]nc(N[C@H]4C[C@H](O)C4)c23)c(F)c1)c1cccc(-c2ccc(F)cc2)[n+]1[O-] [Final product 23] | 21 nM | 12.5 nM | 3.3 nM |
| O=C(Nc1ccc(Oc2ccnc3[nH]nc(N4CCC(O)CC4)c23)c(F)c1)c1cccc(-c2ccc(F)cc2)[n+]1[O-] [Final product 26, 2-((3-fluoro-4-((3-(4-hydroxypiperidin-1-yl)-1H-pyrazolo[3,4-b]pyridin-4-yl)oxy)phenyl)carbamoyl)-6-(4-fluorophenyl)pyridine 1-oxide] | 18.1 nM | 9.5 nM | 3.8 nM |
| CC1(O)CCN(c2n[nH]c3nccc(Oc4ccc(NC(=O)c5cccc(-c6ccc(F)cc6)[n+]5[O-])cc4F)c23)CC1 [Final product 27] | 13.4 nM | 8.6 nM | 4.5 nM |
| CC1(CO)CCN(c2n[nH]c3nccc(Oc4ccc(NC(=O)c5cccc(-c6ccc(F)cc6)[n+]5[O-])cc4F)c23)CC1 [Final product 29] | 15.8 nM | 20.4 nM | 5.2 nM |
| O=C(Nc1ccc(Oc2ccnc3[nH]nc(N4CCC[C@H](CO)C4)c23)c(F)c1)c1cccc(-c2ccc(F)cc2)[n+]1[O-] [Final product 33] | 30.5 nM | 21.1 nM | 9.7 nM |

Second part, the compound after the results:

| IC50 (MET D1228N) | IC50 (MET F1200I) | IC50 [1] | Structure (SMILES) |
| --- | --- | --- | --- |
| 18.8 nM | 12.3 nM | 2.7 nM | O=C(Nc1ccc(Oc2ccnc3[nH]nc(N4CCO[C@@H](CO)C4)c23)c(F)c1)c1cccc(-c2ccc(F)cc2)[n+]1[O-] [Final product 34] |
| 14.7 nM | 17.9 nM | 2 nM | O=C(Nc1ccc(Oc2ccnc3[nH]nc(N4CCO[C@H](CO)C4)c23)c(F)c1)c1cccc(-c2ccc(F)cc2)[n+]1[O-] [Final product 35] |
| 36.2 nM | 14.2 nM | 1.4 nM | C[C@H](CO)Nc1n[nH]c2nccc(Oc3ccc(NC(=O)c4cccc(-c5ccc(Cl)cc5)[n+]4[O-])cc3F)c12 [Final product 42] |
| 17.7 nM | 14.4 nM | 5 nM | C[C@H](CO)Nc1n[nH]c2nccc(Oc3ccc(NC(=O)c4ccc(F)c(-c5ccc(Cl)cc5)[n+]4[O-])cc3F)c12 [Final product 56] |
| 20.3 nM | 7.9 nM | 12.7 nM | CC[C@@H](CO)Nc1n[nH]c2nccc(Oc3ccc(NC(=O)c4ccc(Cl)c(-c5ccc(F)cc5)[n+]4[O-])cc3F)c12 [Final product 59] |
| 45.6 nM | 22.5 nM |  | O=C(Nc1ccc(Oc2ccnc3[nH]nc(N[C@H]4CC[C@H](O)CC4)c23)c(F)c1)c1ccc(Cl)c(-c2ccc(F)cc2)[n+]1[O-] [Final product 64] |
| 37.4 nM | 42.4 nM | 10.8 nM | C[C@H](CO)Nc1n[nH]c2nccc(Oc3ccc(NC(=O)c4ccc(Cl)c(-c5ccc(Cl)cc5)[n+]4[O-])cc3F)c12 [Final product 65] |
| 11 nM | 35.5 nM | 2.7 nM | C[C@H](CO)Nc1n[nH]c2nccc(Oc3ccc(NC(=O)c4ccc(Cl)c(-c5ccc(F)cc5Cl)[n+]4[O-])cc3F)c12 [Final product 66] |
| 32.8 nM | 26 nM | 10.4 nM | C[C@H](CO)Nc1n[nH]c2nccc(Oc3ccc(NC(=O)c4ccc(C5CC5)c(-c5ccc(F)cc5)[n+]4[O-])cc3F)c12 [Final product 81] |
| 48.1 nM | 29.6 nM | 17.4 nM | C[C@H](CO)Nc1n[nH]c2nccc(Oc3ccc(NC(=O)c4ccc(C(F)(F)F)c(-c5ccc(F)cc5)[n+]4[O-])cc3F)c12 [Final product 82] |
| 30.4 nM | 6.2 nM | 3.2 nM | C[C@H](CO)Nc1n[nH]c2nccc(Oc3ccc(NC(=O)c4ccc(C#N)c(-c5ccc(F)cc5)[n+]4[O-])cc3F)c12 [Final product 83] |
| 10.2 nM | 29.7 nM | 6.4 nM | CSc1ccc(C(=O)Nc2ccc(Oc3ccnc4[nH]nc(N[C@H](C)CO)c34)c(F)c2)[n+]([O-])c1-c1ccc(F)cc1 [Final product 86] |
| 20.6 nM | 23 nM | 5.3 nM | C[C@H](CO)Nc1n[nH]c2nccc(Oc3ccc(NC(=O)c4ccc(S(C)(=O)=O)c(-c5ccc(F)cc5)[n+]4[O-])cc3F)c12 [Final product 87] |
| 16.4 nM | 17.6 nM | 5.3 nM | C[C@H](CO)Nc1n[nH]c2nccc(Oc3ccc(NC(=O)c4ccc(N(C)C)c(-c5ccc(F)cc5)[n+]4[O-])cc3F)c12 [Final product 89] |
| 41.2 nM |  | 12.1 nM | C[C@H](CO)Nc1n[nH]c2nccc(Oc3ccc(NC(=O)c4cc(C5CC5)cc(-c5ccc(F)cc5)[n+]4[O-])cc3F)c12 [Final product 91] |
| 14.1 nM | 4.5 nM | 2.2 nM | C[C@H](CO)Nc1n[nH]c2nccc(Oc3ccc(NC(=O)c4ccnc(-c5ccc(F)cc5)[n+]4[O-])cc3F)c12 [Final product 96] |
| 29.2 nM |  | 11.7 nM | COc1ccc2ncnc(Nc3ccc(NC(=O)c4cccc(-c5ccc(F)cc5)[n+]4[O-])cc3F)c2c1O[C@H](C)CO [Final product 181, (R)-2-((3-fluoro-4-((5-((1-hydroxypropan-2-yl)oxy)-6-methoxyquinazolin-4-yl)amino)phenyl)carbamoyl)-6-(4-fluorophenyl)pyridine 1-oxide] |
